This passage reports IC50 results from patent US5998437A, “Benzimidazole derivatives” (Otsuka Pharmaceutical Co., Ltd., priority 1995, dated 1999).

The structures appear in SMILES notation. Like-named read-outs stand apart in the source and are kept apart here.

Assay [1] addresses T1, cGMP-PDE (Homo sapiens, UniProt O76074).
T1 construct: Separation and partial purification of PDE (phosphodiesterase) from human platelets; from tissue; host or cells: human platelets (supernatant, DEAE-cellulose FI fraction)
Description: Activity for inhibiting cGMP PDE (PDE partially purified from human platelets, FI fraction). It is filed as biochemical. Conditions: 0.4 μM of [3H]-cGMP. As for the experimental part: (1) Measurement of the Activity for Inhibiting cGMP PDE
Separation and partial purification of PDE (phosphodiesterase) from human platelets, and measurement of the activity for inhibiting cGMP PDE were conducted by the method of Hidaka, et al. [Biochimica et Biophysica Acta, Vol. 429, (1976), pp. 485-497]. The platelets obtained from human healthy adult were washed, and suspended in TRIS-buffer solution, then said suspension was treated by centrifugal separation, the supernatant was subjected to a DEAE-cellulose treatment and fractionated into FI to FIII fractions by a method of concentration gradient of sodium acetate. Thus obtained FI fraction was used as the sample of cGMP-PDE. The activity for inhibiting cGMP-PDE was measured by using 0.4 μM of [^3 H]-cGMP.

For assay [2], the system named is rat A10 cells. The experiment in a line: Activity for inhibiting proliferation of rat A10 cells ([3H]-thymidine uptake). It is filed as cell-based. Conditions: read-out: Activity for inhibiting proliferation of rat A10 cells [IC50 (μM)]. The procedure: (2) Measurement of the Activity for Inhibiting Proliferation of Rat A10 Cells
(§1) Test was conducted by the modified method of N. Morisaki [Atherosclerosis, Vol. 71, (1988), pp. 165-171]. The rat A10 cells (purchased from Dainippon Pharmaceutical Co., Ltd.) were inoculated on a 24 wells immunoplate at a density of 10,000 cells/well, and were cultured in 10% FBS (fetal bovine serum) for 2 days, and in order to introduce the cells into the resting stage, the cells were further cultured in a serum-free medium for 2 days. After that, 1% FBS was added thereto for stimulating the proliferation, of the cells and at the same time, a test compound and 0.5 μCi/well of [^3 H]-thymidine were added. As to the index of synthesized amount of DNA, the quantity of [^3 H]-thymidine being uptaken by the cells was measured at the time of 24 hours after the final cultivation was started.

Assay [3] concerns human fibroblast. Description: Activity for inhibiting proliferation of the human fibroblast ([3H]-thymidine uptake). Type of assay: cell-based. As for the experimental part:
as §1
(3) Measurement of the Activity for Inhibiting Proliferation of the Human Fibroblast
Similar to the activity for inhibiting proliferation of rat A10 cells as mentioned above, the activity for inhibiting proliferation of the human fibroblast (purchased from Dainippon Pharmaceutical Co., Ltd.) was determined by measuring the uptake amount of [^3 H]-thymidine.

The mark [4] stands for this setting: A10, 1% FBS stimulation, 24 hours.

With `O=C(Nc1ccc2[nH]ccc2c1)c1nc2ccc(Cl)cc2n1Cc1ccccc1` [Example 2], the IC50 was determined as 0.02 µM in assay [1] and 0.4 µM in assay [2] (A10, 24 h).

For the molecule `CN(CCCn1ccc2cc(NC(=O)c3nc4ccc(Cl)cc4n3Cc3ccccc3)ccc21)C1CCCCC1` [Example 4], the IC50 in assay [1] stood at 0.06 µM; in assay [2] (setting [4]), 0.3 µM.

`O=C(Nc1ccc2c(ccn2CCCn2cccn2)c1)c1nc2ccc(Cl)cc2n1Cc1ccccc1` [Example 6]: in assay [2] (setting [4]), the IC50 worked out at 0.66 µM.

Take `O=C(Nc1ccc2c(ccn2CCCn2cncn2)c1)c1nc2ccc(Cl)cc2n1Cc1ccccc1` [Example 7]: in assay [2] (setting [4]), the IC50 worked out at 0.49 µM.

In assay [1], `COC(=O)n1ccc2cc(NC(=O)c3nc4ccc(Cl)cc4n3Cc3ccccc3)ccc21` [Example 9] had an IC50 of 0.08 µM.

Take `O=C(NCCCn1ccc2cc(NC(=O)c3nc4ccc(Cl)cc4n3Cc3ccccc3)ccc21)c1cccnc1` [Example 11, 1-benzyl-6-chloro-2-{1-[3-(pyridin-3-ylcarbonylamino)propyl]indol-5-ylaminocarbonyl}benzimidazole]: the IC50 in assay [1] came to 0.01 µM; in assay [2] (setting [4]) it was 0.97 µM.

As for `Cc1noc(C)c1C(=O)NCCCn1ccc2cc(NC(=O)c3nc4ccc(Cl)cc4n3Cc3ccccc3)ccc21` [Example 12], in assay [2] (setting [4]), the IC50 was found to be 0.69 µM.

Regarding `CC(C)n1nnnc1Cn1ccc2cc(NC(=O)c3nc4ccc(Cl)cc4n3Cc3ccccc3)ccc21` [Example 16], in assay [3], the IC50 was found to be 49 nM.

With `CC(C)c1nccn1CCCn1ccc2cc(CNC(=O)c3nc4ccc(Cl)cc4n3Cc3ccccc3)ccc21` [Example 18], the IC50 in assay [2] (setting [4]) was found to be 0.48 µM.

As to `O=C(Nc1ccc2c(c1)CCN2CCCN1CCC(O)(c2ccccc2)CC1)c1nc2ccc(Cl)cc2n1Cc1ccccc1` [Example 20], the IC50 in assay [1] turned out to be 0.01 µM; in assay [2] (A10, 24 h), 0.85 µM.

`O=C(Nc1ccc2[nH]ncc2c1)c1nc2ccc(Cl)cc2n1Cc1ccccc1` [Example 21] had an IC50 in assay [1] of 0.02 µM.

In assay [1], `N#Cc1cccc(OCCCn2ccc3cc(NC(=O)c4nc5ccc(Cl)cc5n4Cc4ccccc4)ccc32)c1` [Example 25] registered an IC50 of 0.12 µM.

Regarding `O=C(NCCCN1CCc2cc(NC(=O)c3nc4ccc(Cl)cc4n3Cc3ccccc3)ccc21)c1ccc[nH]1` [Example 28], the IC50 in assay [1] was less than 0.01 µM.

Consider `Cc1noc(C)c1C(=O)NCCCN1CCc2cc(NC(=O)c3nc4ccc(Cl)cc4n3Cc3ccccc3)ccc21` [Example 33], for which the IC50 in assay [3] was 42 nM; in assay [1], less than 0.01 µM; in assay [2] (setting [4]), 1.27 µM.

Consider `O=C1CCc2cc(NC(=O)c3nc4ccc(Cl)cc4n3Cc3ccccc3)ccc2N1` [Example 41, 1-benzyl-6-chloro-2-(3,4-dihydro-2(1H)-quinolinon-6-ylaminocarbonyl)benzimidazole], for which the IC50 in assay [1] stood at 0.02 µM.

With `C=CCN1C(=O)CCc2cc(NC(=O)c3nc4ccc(Cl)cc4n3Cc3ccccc3)ccc21` [Example 42], the IC50 was 0.1 µM in assay [1] and 0.95 µM in assay [2] (setting [4]).

Molecule `CN(C)CCN(C)CCCN1C(=O)CCc2cc(NC(=O)c3nc4ccc(Cl)cc4n3Cc3ccccc3)ccc21` [Example 44] came in with an IC50 in assay [1] of 0.014 µM.

Regarding `CC(C)n1nnnc1CN1C(=O)CCc2cc(NC(=O)c3nc4ccc(Cl)cc4n3Cc3ccccc3)ccc21` [Example 45], in assay [3], the IC50 came out at 41 nM.

On to `O=C(Nc1ccc2[nH]c(=O)ccc2c1)c1nc2ccc(Cl)cc2n1Cc1ccccc1` [Example 46, 1-benzyl-6-chloro-2-[2(1H)-quinolinon-6-ylamino-caronyl]benzimidazole], for which, in assay [1], the IC50 was less than 0.01 µM.

Take `O=C(NCCCN1CCOc2cc(NC(=O)c3nc4ccc(Cl)cc4n3Cc3ccccc3)ccc21)c1ccccn1` [Example 47]: the results for the IC50 in assay [3], in assay [1] and in assay [2] (setting [4]) were 21 nM, less than 0.01 µM and 0.67 µM, respectively.
